Assays:
[1] = Acute toxicity (LD50), i.v. via tail vein, one-week observation; conditions: both sexes, mouse, in vivo, iv, Kunming mice, YC-6 injection of Example 3 (20 mg/ml)
Experimental: Kunming mice were caged by weight and randomly divided into 5 groups. Each group had 10 mice, with half males and half females. The YC-6 injection 10 prepared in Example 3 (20 mg/ml) was i.v. administrated via tail vein at different doses. All mice were sacrificed after one-week observation. The toxic reaction and number of death of the animals were recorded every day. LD50 and 95% confidence were calculated.

Solubility in water = format: physicochemical; conditions: background statement, no test described

With `C[C@@]12CCC[C@H]1[C@@H]1C[C@@H](O)[C@@]3(O)C[C@@H](O)CC[C@]3(C)[C@H]1CC2` [YC-6, 5α-androstane-3β,5,6β-triol] the LD50 at 1 week [1] was over 400 mg/kg and the Solubility in water (Solubility in water) was “low solubility in water”.

From patent publication US9265837B1, “5α-androstane-3β,5,6β-triol injection and preparation method therefor” (Guangzhou Cellprotek Pharmaceuticals Ltd., priority 2010, dated 2016)
